The values that follow come from ChEMBL document CHEMBL5052841, “Usp19 inhibitors for use in therapy” (2020).

The target in this test is T1, Ubiquitin carboxyl-terminal hydrolase 19 (Homo sapiens, UniProt O94966).
T1 sequence (O94966 whole entry): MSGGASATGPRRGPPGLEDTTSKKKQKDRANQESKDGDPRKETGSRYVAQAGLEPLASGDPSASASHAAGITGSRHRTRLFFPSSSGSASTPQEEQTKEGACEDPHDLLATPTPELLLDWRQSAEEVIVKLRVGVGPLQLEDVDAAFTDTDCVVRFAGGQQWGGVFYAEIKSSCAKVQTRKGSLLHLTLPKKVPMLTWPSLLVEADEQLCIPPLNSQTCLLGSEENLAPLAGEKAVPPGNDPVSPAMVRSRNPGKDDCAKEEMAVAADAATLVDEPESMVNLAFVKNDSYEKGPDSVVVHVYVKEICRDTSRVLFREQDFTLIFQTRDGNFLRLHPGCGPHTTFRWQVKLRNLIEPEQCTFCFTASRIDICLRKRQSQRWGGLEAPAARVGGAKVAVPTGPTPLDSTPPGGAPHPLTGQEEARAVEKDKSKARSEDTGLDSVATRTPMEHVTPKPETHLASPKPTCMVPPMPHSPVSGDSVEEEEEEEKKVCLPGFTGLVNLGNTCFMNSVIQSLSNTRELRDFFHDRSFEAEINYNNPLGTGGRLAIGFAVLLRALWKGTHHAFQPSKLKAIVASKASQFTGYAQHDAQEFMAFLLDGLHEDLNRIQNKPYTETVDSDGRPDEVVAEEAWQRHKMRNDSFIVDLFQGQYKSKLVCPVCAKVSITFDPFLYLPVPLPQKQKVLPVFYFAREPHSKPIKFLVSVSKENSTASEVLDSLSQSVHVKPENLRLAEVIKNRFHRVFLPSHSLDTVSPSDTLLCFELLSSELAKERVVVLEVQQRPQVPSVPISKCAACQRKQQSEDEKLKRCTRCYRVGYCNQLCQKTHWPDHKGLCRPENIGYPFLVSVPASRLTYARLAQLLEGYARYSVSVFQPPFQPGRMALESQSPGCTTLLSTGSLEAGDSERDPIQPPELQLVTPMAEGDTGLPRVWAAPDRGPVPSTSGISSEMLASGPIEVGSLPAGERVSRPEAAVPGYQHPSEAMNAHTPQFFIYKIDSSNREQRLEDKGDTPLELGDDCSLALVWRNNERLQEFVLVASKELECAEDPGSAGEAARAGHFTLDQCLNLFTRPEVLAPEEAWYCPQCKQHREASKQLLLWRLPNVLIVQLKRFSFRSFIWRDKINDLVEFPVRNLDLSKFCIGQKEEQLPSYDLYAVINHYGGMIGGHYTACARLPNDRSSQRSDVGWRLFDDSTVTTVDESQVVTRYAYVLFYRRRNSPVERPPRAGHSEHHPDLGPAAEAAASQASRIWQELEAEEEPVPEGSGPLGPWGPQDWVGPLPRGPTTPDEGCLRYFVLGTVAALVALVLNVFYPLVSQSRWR
As to the kind of experiment: Inhibition of C-terminal His6-tagged recombinant human USP19 using iso-peptide ubiquitin-Lys-TAMRA as substrate incubated for 30 mins and measured after 90 mins by fluorescent polarization assay.

Broadly, the IC50 is the concentration at which inhibition is half-maximal. Turning to `CN(C)C(=O)c1cn(C[C@]2(O)CCN(C(=O)[C@H](CCO)CC3CCCCC3)CC2(C)C)c(=O)cc1-c1ccccc1`, the half-inhibitory concentration (IC50) was < 500 nM.

Consider `O=C(CCC1CCC1)N1CCC(O)(Cn2cnc(-c3ccccc3F)cc2=O)CC1`, for which the IC50 was ≥ 50000 nM.

Consider `C[C@H](CC(F)(F)F)C(=O)N1CC[C@@](O)(Cn2cc(C(=O)N(C)C)c(-c3ccccc3)cc2=O)C2(CCCC2)C1`, for which the IC50 is < 500 nM. As to `O=C(c1cn(C[C@]2(O)CCN(C(=O)[C@H](CO)CC(F)(F)F)CC23CCCC3)c(=O)cc1-c1ccccc1)N1CCOCC1`, the IC50 was < 500 nM. Regarding `C[C@H](CC1CCCCC1)C(=O)N1CC[C@@](O)(Cn2cc(C(=O)N3CCOCC3)c(-c3ccccc3)cc2=O)C2(CCCC2)C1`, the IC50 was < 500 nM.

For the molecule `C[C@H](CC1CCCCC1)C(=O)N1CC[C@@](O)(Cn2cc(C(=O)N3CCNC[C@H]3CO)c(-c3ccccc3)cc2=O)C(C)(C)C1`, the IC50 is < 500 nM. Consider `CN(C)C(=O)c1cn(C[C@]2(O)CCN(C(=O)[C@H](CO)CC3CCC3)CC2(C)C)c(=O)cc1-c1ccccc1`, for which the IC50 was < 500 nM. On to `C[C@H](CC1CCCCC1)C(=O)N1CC[C@@](O)(Cn2cc(C(=O)N3CCNCC3)c(-c3ccccc3F)cc2=O)C2(CCCC2)C1`, for which the IC50 is < 500 nM. Under `O=C(C1CCNC1c1ccccc1)N1CC[C@@](O)(Cn2cnc(-c3ccccc3)cc2=O)C2(CCCC2)C1` (some centres not stated) stands < 500 nM; under `O=C(c1cn(C[C@]2(O)CCN(C(=O)[C@H](CO)CC(F)(F)F)CC23CCCC3)c(=O)cc1-c1ccccc1)N1CCNCC1`, < 500 nM. On to `CN(C)C(=O)c1cn(C[C@]2(O)CCN(C(=O)[C@H](CO)CC3CCCCC3)CC2(C)C)c(=O)cc1-c1ccccc1`, for which the half-maximal inhibitory concentration (IC50) was < 500 nM. With `C[C@H](CC1CCCCC1)C(=O)N1CC[C@@](O)(Cn2cc(C(=O)N3CCN(C)CC3)c(-c3ccccc3)cc2=O)C2(CCCC2)C1`, the IC50 is < 500 nM.
